Measurements as given in ChEMBL document CHEMBL2434833, “Optimization of benzodiazepinones as selective inhibitors of the X-linked inhibitor of apoptosis protein (XIAP) second baculovirus IAP repeat (BIR2) domain” (J Med Chem, 2013).

Key:
Liver microsomes = details: human, up to 10 µM
[1] = Tmax in C57 mouse at 10 mg/kg, po; assay type: ADME, organism-based; design: dose 10 mg/kg, route oral; details: in vivo
[2] = AUC in C57 mouse at 10 mg/kg, po; assay type: ADME, organism-based; design: dose 10 mg/kg, route oral; details: plasma
[3] = Cmax in C57 mouse at 10 mg/kg, po; assay type: ADME, organism-based; design: dose 10 mg/kg, route oral; details: in vivo
[4] = Oral bioavailability in C57 mouse at 10 mg/kg; assay type: ADME, organism-based; details: in vivo
[5] = Plasma concentration in nude mouse xenografted with human LOX cells at 200 mg/kg, po measured at 8 hrs; assay type: ADME, organism-based; design: dose 200 mg/kg, route oral
[6] = Drug uptake in tumor of nude mouse xenografted with human LOX cells at 200 mg/kg, po measured at 8 hrs; assay type: ADME, organism-based, Neoplasm; design: dose 200 mg/kg, route oral; details: read-out: Drug uptake
[7] = Drug uptake in tumor of nude mouse xenografted with human LOX cells at 100 mg/kg, po measured at 8 hrs; assay type: ADME, organism-based, Neoplasm; design: dose 100 mg/kg, route oral; details: read-out: Drug uptake
[8] = Plasma concentration in nude mouse xenografted with human LOX cells at 100 mg/kg, po measured at 8 hrs; assay type: ADME, organism-based; design: dose 100 mg/kg, route oral

Row | Stability (Liver microsomes) | Tmax [1] [h] | AUC [2] [ng·h/mL] | Cmax [3] [ng/mL] | bioavailability [4] [%] | concentration at 8 h [5] [µM] | concentration at 8 h [6] [µM] | concentration at 8 h [7] [µM] | concentration at 8 h [8] [µM] | Structure (SMILES)
1 | Stable | 4 | 5980 | 873 | 8 |  |  |  |  | CN[C@@H](C)C(=O)N[C@@H]1C(=O)N(Cc2c(OC)ccc3ccccc23)c2ccc(C#N)cc2N(C(C)=O)[C@H]1C.Cl
2 |  | 0.25 | 7870 | 823 | 28 | 5 | 7.7 |  |  | CN[C@@H](C)C(=O)N[C@@H]1C(=O)N(Cc2c(C)ccc3ccccc23)c2ccc(C#N)cc2N(C(C)=O)[C@H]1C.Cl
3 |  |  |  |  |  |  |  | 18.4 | 3.3 | CN[C@@H](C)C(=O)N[C@H](C(=O)N1CCC[C@H]1c1nc(C(=O)c2ccc(F)cc2)cs1)C1CCCCC1 [LCL-161]
